Legend:
RORγ-LBD = target: T1, RORγ-LBD (Homo sapiens, UniProt P51449); assay: RORγ-Ligand Binding Domain (LBD) TR-FRET Assay; format: biochemical;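 for TR-FRET Assay Max Response: 665/615 nm ratio relative to signal without ursolic acid or compound set at 100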
T1 construct: made in house; host or cells: SF9 cells (baculovirus)
T1 sequence (P51449 269-508 limits assumed): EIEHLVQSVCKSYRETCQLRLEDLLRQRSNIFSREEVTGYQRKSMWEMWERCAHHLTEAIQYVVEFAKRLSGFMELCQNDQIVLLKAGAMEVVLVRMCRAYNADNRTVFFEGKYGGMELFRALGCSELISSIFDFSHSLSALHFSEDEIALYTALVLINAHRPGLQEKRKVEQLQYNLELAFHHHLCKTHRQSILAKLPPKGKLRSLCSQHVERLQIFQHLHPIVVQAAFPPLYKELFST
Outline: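 TR-FRET read-out using a biotin-tagged SRC1 coactivator LXXLL peptide (200 nM final), with the antagonist ursolic acid present at 2 μM final. Receptor is His-tagged LBD expressed in SF9 cells, ~3 nM final in pH 7.0 Tris/KCl/EDTA/DTT/BSA buffer; compounds in 1% DMSO final.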

Gal4-RORγ-LBD = target: T2, Gal4-RORγ-LBD (Homo sapiens, UniProt P51449); assay: Gal4-RORγ Luciferase Reporter Assay in HEK-293T Cells; format: cell-based; settings: HEK-293 cells
T2 construct: expressed in transfected cells; host or cells: HEK-293 cells (pcDNA3.1neo plasmid)
T2 sequence (P51449 269-508 limits assumed): T1 sequence (P51449 269-508 limits assumed)
Outline: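 Luminescence read-out (One-Glo, 10 min RT) after overnight compound exposure at 37 °C in HEK-293 cells carrying Gal4-RORγ-LBD plus a Gal4-luciferase reporter, in the presence of 2 μM ursolic acid. Max Response is the upper plateau from a 4-parameter logistic fit, normalized to untreated signal = 100.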

[1] = luciferase reporter, with 2 μM ursolic acid

EC50 (RORγ-LBD) [nM] | EC50 (Gal4-RORγ-LBD; [1]) [nM] | EC50 (Gal4-RORγ-LBD; 2 μM ursolic acid) [nM] | Compound | TR-FRET Assay Max Response (RORγ-LBD) | Gal4-RORγ Assay Max Response (Gal4-RORγ-LBD; [1]) | Gal4-RORγ Assay Max Response (Gal4-RORγ-LBD; 2 μM ursolic acid)
< 500 | < 500 |  | CC(C)(C[C@H]1CN(S(=O)(=O)c2cccc(C(F)(F)F)c2)c2cc(-c3cccc(C(F)(F)F)c3)ccc2O1)C(=O)O [Compound 32O, (S)-2,2-dimethyl-3-(6-(3-(trifluoromethyl)phenyl)-4-((3-(trifluoromethyl)phenyl)sulfonyl)-3,4-dihydro-2H-benzo[b][1,4]oxazin-2-yl)propanoic acid] | **** (The symbol “****” indicates a value greater than 200) | * (The symbol “*” indicates a value in the range of 25 to 90) | 
< 500 |  | < 500 | O=C(O)[C@H]1C[C@H](C[C@H]2CN(S(=O)(=O)c3cccc(C(F)(F)F)c3)c3cc(-c4cc(F)ccc4F)ccc3O2)C1 [Compound 60A, (1S,3r)-3-(((S)-6-(2,5-difluoro-phenyl)-4-((3-(trifluoromethyl)-phenyl)sulfonyl)-3,4-dihydro-2H-benzo[b][1,4]oxazin-2-yl)methyl)cyclobutane-1-carboxylic acid] | *** (The symbol “***” indicates a value in the range of greater than 150 to 200) |  | ** (The symbol “**” indicates a value in the range of greater than 90 to 150)
< 500 | < 500 |  | O=C(O)CCC[C@H]1CN(S(=O)(=O)c2cccc(C(F)(F)F)c2)c2cc(-c3cccc(C(F)(F)F)n3)ccc2O1 [Compound 21C, (S)-4-(4-((3-(trifluoromethyl)-phenyl)sulfonyl)-6-(6-(trifluoromethyl)pyridin-2-yl)-3,4-dihydro-2H-benzo[b][1,4]oxazin-2-yl)butanoic acid] | **** (The symbol “****” indicates a value greater than 200) | *** (The symbol “***” indicates a value in the range of greater than 150 to 200) | 
< 500 | < 500 |  | O=C(O)CC[C@H]1CN(S(=O)(=O)c2cccc(C(F)(F)F)c2)c2cc(-c3cc(F)cc(Cl)c3)ccc2O1 [Compound 2I, (S)-3-(6-(3-chloro-5-fluorophenyl)-4-((3-(trifluoro-methyl)phenyl)sulfonyl)-3,4-dihydro-2H-benzo[b][1,4]-oxazin-2-yl)propanoic acid] | *** (The symbol “***” indicates a value in the range of greater than 150 to 200) | *** (The symbol “***” indicates a value in the range of greater than 150 to 200) | 
< 500 |  | < 500 | O=C(O)C1(C[C@H]2CN(S(=O)(=O)c3cccc(C(F)(F)F)c3)c3cc(-c4cc(F)cc(F)c4Cl)ccc3O2)COC1 [Compound 51B, (S)-3-((6-(2-chloro-3,5-difluoro-phenyl)-4-((3-(trifluoromethyl)-phenyl)sulfonyl)-3,4-dihydro-2H-benzo[b][1,4]oxazin-2-yl)methyl)oxetane-3-carboxylic acid] | *** (The symbol “***” indicates a value in the range of greater than 150 to 200) |  | ** (The symbol “**” indicates a value in the range of greater than 90 to 150)
< 500 | < 500 |  | O=C(O)CC[C@H]1CN(S(=O)(=O)c2cccc(C(F)(F)F)c2)c2cc(-c3cccc(F)c3F)cc(F)c2O1 [Compound 22E, (S)-3-(6-(2,3-difluorophenyl)-8-fluoro-4-((3-(trifluoromethyl)phenyl)sulfonyl)-3,4-dihydro-2H-benzo[b][1,4]-oxazin-2-yl)propanoic acid] | **** (The symbol “****” indicates a value greater than 200) | ** (The symbol “**” indicates a value in the range of greater than 90 to 150) | 
< 500 | 500 to 5000 |  | O=C(O)CC[C@H]1CN(S(=O)(=O)c2cccc(C(F)(F)F)c2)c2cc(-c3cnn4ccccc34)ccc2O1 [Compound 4O, (S)-3-(6-(pyrazolo[1,5-a]pyridin-3-yl)-4-((3-(trifluoromethyl)-phenyl)sulfonyl)-3,4-dihydro-2H-benzo[b][1,4]oxazin-2-yl)propanoic acid] | *** (The symbol “***” indicates a value in the range of greater than 150 to 200) | ** (The symbol “**” indicates a value in the range of greater than 90 to 150) | 
< 500 | 500 to 5000 |  | CN(CCC(=O)O)C(=O)NC[C@H]1CN(S(=O)(=O)c2cccc(C(F)(F)F)c2)c2cc(-c3cc(F)ccc3F)ccc2O1 [Compound 23R, (S)-3-(3-((6-(2,5-difluorophenyl)-4-((3-(trifluoromethyl)phenyl)-sulfonyl)-3,4-dihydro-2H-benzo[b][1,4]oxazin-2-yl)methyl)-1-methylureido)propanoic acid] | **** (The symbol “****” indicates a value greater than 200) | ** (The symbol “**” indicates a value in the range of greater than 90 to 150) | 
< 500 | < 500 |  | O=C(O)CC[C@H]1CN(S(=O)(=O)c2cccc(C(F)(F)F)c2)c2cc(-c3c(F)cccc3Cl)ccc2O1 [Compound 2AG, (S)-3-(6-(2-chloro-6-fluoro-phenyl)-4-((3-(trifluoromethyl)-phenyl)sulfonyl)-3,4-dihydro-2H-benzo[b][1,4]oxazin-2-yl)propanoic acid] | **** (The symbol “****” indicates a value greater than 200) | *** (The symbol “***” indicates a value in the range of greater than 150 to 200) | 
< 500 |  | < 500 | COc1cc(F)cc(-c2ccc3c(c2)N(S(=O)(=O)c2cccc(C(F)(F)F)c2)C[C@H](CC(C)(C)C(=O)O)O3)c1 [Compound 32AG, (S)-3-(6-(3-fluoro-5-methoxy-phenyl)-4-((3-(trifluoromethyl)-phenyl)sulfonyl)-3,4-dihydro-2H-benzo[b][1,4]oxazin-2-yl)-2,2-dimethylpropanoic acid] | **** (The symbol “****” indicates a value greater than 200) |  | ** (The symbol “**” indicates a value in the range of greater than 90 to 150)
< 500 | < 500 |  | C[C@@H](O)C(=O)NC[C@H]1CN(S(=O)(=O)c2cccc(C(F)(F)F)c2)c2cc(-c3cc(F)ccc3F)ccc2O1 [Compound 30AF, (R)-N-(((S)-6-(2,5-difluoro-phenyl)-4-((3-(trifluoromethyl)-phenyl)sulfonyl)-3,4-dihydro-2H-benzo[b][1,4]oxazin-2-yl)-methyl)-2-hydroxypropanamide] | *** (The symbol “***” indicates a value in the range of greater than 150 to 200) | ** (The symbol “**” indicates a value in the range of greater than 90 to 150) | 
500 to 5000 |  | 500 to 5000 | CC(=O)N[C@H]1C[C@@](C[C@H]2CN(S(=O)(=O)c3cccc(C(F)(F)F)c3)c3cc(-c4cc(F)ccc4F)ccc3O2)(C(=O)O)C1 [Compound 89A, (1s,3R)-3-acetamido-1-(((S)-6-(2,5-difluorophenyl)-4-((3-(trifluoro-methyl)phenyl)sulfonyl)-3,4-dihydro-2H-benzo[b][1,4]oxazin-2-yl)methyl)cyclobutane-1-carboxylic acid] | *** (The symbol “***” indicates a value in the range of greater than 150 to 200) |  | ** (The symbol “**” indicates a value in the range of greater than 90 to 150)
< 500 | < 500 |  | CC(C)(O)C(=O)NCC[C@H]1CN(S(=O)(=O)c2cccc(C(F)(F)F)c2)c2cc(-c3cc(F)ccc3F)ccc2O1 [Compound 29, (S)—N-(2-(6-(2,5-difluorophenyl)-4-((3-(trifluoromethyl)phenyl)sulfonyl)-3,4-dihydro-2H-benzo[b][1,4]oxazin-2-yl)ethyl)-2-hydroxy-2-methylpropanamide] | **** (The symbol “****” indicates a value greater than 200) | ** (The symbol “**” indicates a value in the range of greater than 90 to 150) | 
< 500 | < 500 |  | O=C(O)[C@H](O)CC[C@H]1CN(S(=O)(=O)c2cccc(C(F)(F)F)c2)c2cc(-c3cc(F)ccc3F)ccc2O1 [Compound 38, (R)-4-((S)-6-(2,5-difluorophenyl)-4-((3-(trifluoromethyl)phenyl)sulfonyl)-3,4-dihydro-2H-benzo[b][1,4]oxazin-2-yl)-2-hydroxybutanoic acid] | *** (The symbol “***” indicates a value in the range of greater than 150 to 200) | ** (The symbol “**” indicates a value in the range of greater than 90 to 150) | 
< 500 | < 500 |  | CC(C)(O)C(=O)NCC[C@H]1CN(S(=O)(=O)c2cccc(OC(F)F)c2)c2cc(-c3cc(F)ccc3F)ccc2O1 [Compound 30P, (S)-N-(2-(4-((3-(difluoro-methoxy)phenyl)sulfonyl)-6-(2,5-difluorophenyl)-3,4-dihydro-2H-benzo[b][1,4]oxazin-2-yl)ethyl)-2-hydroxy-2-methylpropanamide] | **** (The symbol “****” indicates a value greater than 200) | ** (The symbol “**” indicates a value in the range of greater than 90 to 150) | 
